Test results as given in patent US12352763B2, “Method of determining autophagosome flux and uses thereof” (Stellenbosch University, priority 2016, dated 2025).

Legend:
[1] = system: mouse embryonic fibroblast (MEF) cells; assay: Determining complete fusion inhibition: saturating inhibitor concentration, Western blot; assay type: cell-based
Description: FIG. 2 is a Western blot analysis and corresponding graphs illustrating the results of the study to determine the saturating inhibitor concentration of bafilomycin A1 required to fully block autophagosomal/lysosomal fusion.
This saturating concentration should be determined prior to performing the method. […] Although this can be performed through Western blot analysis, a more precise technique is to determine the change over time of the autophagosome pool size after inhibition of fusion using the method of the present invention (FIG. 2). Thus, the change in pool size before and shortly after inhibition of fusion is determined and the rate of change (typically expressed over 1 hour) is calculated.
Bafilomycin A1 was selected as the inhibitor in this example because it is the most commonly used drug in the field.

LC3, p62 and pmTOR = assay: Western blot analysis probing for LC3, p62 and pmTOR (validation); assay type: cell-based; details: treatment with bafilomycin
Procedure: FIG. 8 is a Western blot analysis probing for LC3, p62 and pmTOR. […] This method, however, cannot measure dynamic changes and vesicular pool size required to measure autophagosome flux. […] Western blot analysis and TEM was performed in the presence and absence of bafilomycin A1. […] Therefore, autophagosome flux cannot be accurately assessed. It allows the detection of the respective protein, LC3 II, from a whole cell population, without linking the protein band signal to single cell pool sizes of entities. Moreover, the nature of Western blot analysis omits any measurements of dynamic changes (FIG. 8).

MEF cells = assay: Autophagosome flux assay: live-cell z-stack fluorescence imaging of GFP-LC3 / LysoTracker Red cells, with fusion blocked by 400 nM bafilomycin A1; assay type: cell-based, mouse
Procedure: For the autophagosomal pool size analysis, the autophagosomes and the lysosomes were visualized and labelled specifically. The autophagolysosomal entities were identified by co-localization analysis. Stably transfected green fluorescent protein-LC3 (GFP-LC3) cells were treated with the lysosome-labelling marker, LysoTracker® Red (Life Technologies, #L-7528) in order to visualize the autophagosomes, the lysosomes and the autophagolysosomes. MEF cells were seeded onto a sterile cover-slip patterned with large fibronectin discs (CYTOO, #10-003-10) in a CYTOO chamber single well plate. Cells were seeded at a density of 2×10^4 cells and incubated for 30 minutes. Thereafter, the chamber was rinsed several times using DMEM until all adherent cells in the non-patterned regions were washed off. The cells were maintained for 2 hours prior to the experiment in DMEM, containing 75 nM LysoTracker Red, in a humidified atmosphere in the presence of 5% CO2 at […]. The chamber plate was then enclosed in an Olympus IX-81 stage of an inverted fluorescence microscope in the presence of 5% CO2 for the duration of the experiment. Serum starvation was avoided, since it would upregulate autophagosome flux and mask the cell-inherent basal autophagosome flux.
Z-stack image acquisition was performed in order to acquire the complete autophagosomal pool size. An Olympus IX-81 coupled to an MT-20 and xenon burner 150 W and an F-view camera were employed. Temperature and 5% CO2 were controlled. For live cell acquisition, single cell acquisition was performed using automated stage coordinate settings. CellR-based software (Olympus, Soft Imaging) was employed. Images were processed using Cell R imaging software and exported to the modified (for high throughput) automated counting software (ImageJ with WatershedCounting3D plug in (Gniadek et al., 2007)), to count the green and red puncta using voxel dimension 0.08 for both x and y as the search parameters. Puncta count and morphometric analysis were performed using the Watershed Counting3D plugin of ImageJ. Images were converted to RGB colour format and processed by WatershedCounting3D. Puncta count and surface area were determined for each colour puncta from the output file generated. Equations 1, 2 and 3 described above were used to determine the radius, volume and total surface area of spheres.
In order to assess the basal autophagosome flux in steady state, cells were treated with 400 nM bafilomycin A1 (FIG. 4). The autophagosomal pool size was monitored for two hours post-inhibition and images were acquired at 30 minute intervals. The basal flux, Jbasal, was determined by allowing the autophagic system to reach a steady state under basal conditions (basal flux is the initial slope of the progress curve at the point of inhibition of fusion). Multiple cells (n=10) were assessed simultaneously using a stage control. The transition time, τ, was calculated from the ratio τ=nA/J of the autophagosome pool size and autophagosome flux, and indicated the turnover time of the autophagosome pool at steady state.
The autophagosome flux J, the autophagosomal pool size nA, and the autophagosomal transition time τ were determined (FIG. 6 and Table 1).

[2] = 25 nM rapamycin versus basal, increase

## CO/C1=C\C(C)=C\[C@@H](C)[C@@H](O)[C@@H](C)C/C(C)=C/C=C/[C@H](OC)[C@@H]([C@@H](C)[C@@H](O)[C@H](C)[C@@]2(O)C[C@@H](O)[C@H](C)[C@@H](C(C)C)O2)OC1=O [Bafilomycin A1]
[1]; 400 nM for 2 hours
  Inhibition of autophagosomal-lysosomal fusion: complete inhibition
[1]; concentration of 800 nM
  Cell toxicity: cell toxicity was observed
LC3, p62 and pmTOR
  LC3II and p62 bands: increases

## CO[C@H]1C[C@@H]2CC[C@@H](C)[C@@](O)(O2)C(=O)C(=O)N2CCCC[C@H]2C(=O)O[C@H]([C@H](C)C[C@@H]2CC[C@@H](O)[C@H](OC)C2)CC(=O)[C@H](C)/C=C(\C)[C@@H](O)[C@@H](OC)C(=O)[C@H](C)C[C@H](C)/C=C/C=C/C=C/1C [rapamycin]
MEF cells; 25 nM rapamycin versus basal, decrease
  Transition time, % change (% Δ): 69.8%
MEF cells; [2]
  Autophagosome Pool size nA, % change (% Δ): 22.4%
  Autophagosome flux J, % change (% Δ): 315%
MEF cells; induced with rapamycin
  Autophagolysosomal transition time, τAL: 2.4 h
  Autophagosomal membrane flux, Jmem: 8268 μm^2/hr/cell
  Cytoplasmic volume consumption rate, Jvol: 495 fL/hr/cell
MEF cells; induced with rapamycin (25 nM)
  Autophagosome flux, J: 105.4 A/hr/cell
  Average volume of an autophagosome: 4.7 fL
  Number of autophagolysosomes, nAL: 251.2 AL/cell
  Number of autophagosomes, nA: 16.7 A/cell
MEF cells; induced with rapamycin, τ=nA/J
  Autophagosomal transition time, τA: 0.16 h
MEF cells; modulator rapamycin (Table 2)
  Autophagosome Pool size nA: 16.4 No. of autophagosomes
  Autophagosome flux, J: 105.4 No. of autophagosomes/cell*hr^1
  Transition time: 0.16 h
MEF cells; rapamycin versus basal
  Autophagosome Pool size nA, net change (Δ): 3 No. of autophagosomes
  Autophagosome flux J, net change (Δ): 80 No. of autophagosomes/cell*hr^1
MEF cells; rapamycin versus basal, decrease
  Transition time, net change (Δ): 0.37 h
